Test results published in the kinase profiling compilation of Christmann-Franck et al. (2016).
Values belong to the compound of their own block, whether it stands above or below them.

Tests used:
Assay in all cases: radiometric filter-binding kinase assay, Kinase HotSpot
Settings in all cases: compound 0.5 µM; ATP 10 µM
PRKCH (human) = PRKCH (human) (UniProt P24723)
TLK2 (human) = TLK2 (human) (UniProt Q86UE8)
STK33 (human) = STK33 (human) (UniProt Q9BYT3)
DYRK1B (human) = DYRK1B (human) (UniProt Q9Y463)
DYRK1B (human), sequence (Q9Y463 whole entry, looked up): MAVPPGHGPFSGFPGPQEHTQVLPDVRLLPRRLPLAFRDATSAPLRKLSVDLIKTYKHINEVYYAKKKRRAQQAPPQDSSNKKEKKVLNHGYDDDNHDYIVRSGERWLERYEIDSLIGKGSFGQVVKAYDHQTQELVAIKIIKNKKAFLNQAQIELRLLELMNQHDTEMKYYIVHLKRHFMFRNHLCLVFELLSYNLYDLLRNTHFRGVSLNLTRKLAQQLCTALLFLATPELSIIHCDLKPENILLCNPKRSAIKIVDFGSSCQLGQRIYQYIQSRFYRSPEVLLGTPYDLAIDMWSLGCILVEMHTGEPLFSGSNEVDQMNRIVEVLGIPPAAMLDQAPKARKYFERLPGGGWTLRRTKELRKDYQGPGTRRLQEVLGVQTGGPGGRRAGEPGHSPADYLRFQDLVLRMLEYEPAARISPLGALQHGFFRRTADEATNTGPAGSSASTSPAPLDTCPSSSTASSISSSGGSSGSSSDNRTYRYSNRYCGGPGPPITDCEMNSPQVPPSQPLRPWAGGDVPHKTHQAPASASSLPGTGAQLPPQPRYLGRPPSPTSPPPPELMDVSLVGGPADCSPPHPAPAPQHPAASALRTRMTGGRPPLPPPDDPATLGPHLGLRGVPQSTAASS

LTK (human) = LTK (human) (UniProt P29376)
CDK1 CCNB1 (human) = CDK1 CCNB1 (human) (UniProt P06493+P14635)
CDK1 CCNA2 (human) = CDK1 CCNA2 (human) (UniProt P06493+P20248)
CDK2 CCNA2 (human) = CDK2 CCNA2 (human) (UniProt P24941+P20248)
CDK5 CDK5R1 p35 (human) = CDK5 CDK5R1 p35 (human) (UniProt Q00535+Q15078)
CDK4 CCND3 (human) = CDK4 CCND3 (human) (UniProt P30281+P11802)
CDK5 CDK5R1 p25 (human) = CDK5 CDK5R1 p25 (human) (UniProt Q00535+Q15078)
CDK6 CCND1 (human) = CDK6 CCND1 (human) (UniProt Q00534+P24385)
CDK9 CCNK (human) = CDK9 CCNK (human) (UniProt O75909+P50750)
CDK9 CCNK (human), sequence (O75909 whole entry, looked up): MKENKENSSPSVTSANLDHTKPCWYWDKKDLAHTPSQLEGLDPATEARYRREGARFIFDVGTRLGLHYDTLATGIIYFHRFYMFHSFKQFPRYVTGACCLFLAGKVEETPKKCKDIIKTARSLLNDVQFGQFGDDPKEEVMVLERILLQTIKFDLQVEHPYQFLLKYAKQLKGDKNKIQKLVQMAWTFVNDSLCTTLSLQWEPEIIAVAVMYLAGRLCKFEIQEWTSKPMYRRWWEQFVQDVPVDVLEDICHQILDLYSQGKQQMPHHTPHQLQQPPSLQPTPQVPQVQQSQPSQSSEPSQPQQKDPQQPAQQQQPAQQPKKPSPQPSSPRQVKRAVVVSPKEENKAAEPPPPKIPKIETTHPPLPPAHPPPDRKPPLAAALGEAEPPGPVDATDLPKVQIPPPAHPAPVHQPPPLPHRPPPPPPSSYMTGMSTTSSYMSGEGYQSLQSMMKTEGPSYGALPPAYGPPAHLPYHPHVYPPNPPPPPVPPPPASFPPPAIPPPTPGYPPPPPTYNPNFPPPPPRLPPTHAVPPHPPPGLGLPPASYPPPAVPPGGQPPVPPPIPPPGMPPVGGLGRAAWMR
CDK9 CCNK (human), sequence (P50750 whole entry, looked up): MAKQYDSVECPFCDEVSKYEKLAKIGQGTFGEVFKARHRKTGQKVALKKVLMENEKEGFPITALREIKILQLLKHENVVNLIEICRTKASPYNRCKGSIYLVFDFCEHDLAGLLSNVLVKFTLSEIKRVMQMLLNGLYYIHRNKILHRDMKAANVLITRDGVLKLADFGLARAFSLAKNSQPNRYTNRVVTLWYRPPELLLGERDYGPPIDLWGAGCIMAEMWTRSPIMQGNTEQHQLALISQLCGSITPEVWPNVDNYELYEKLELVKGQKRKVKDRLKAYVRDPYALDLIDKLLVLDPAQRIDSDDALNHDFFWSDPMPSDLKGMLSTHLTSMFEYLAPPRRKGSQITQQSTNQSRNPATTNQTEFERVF

CDK6 CCND3 (human) = CDK6 CCND3 (human) (UniProt P30281+Q00534)
CDK7 CCNH MNAT1 (human) = CDK7 CCNH MNAT1 (human) (UniProt P50613+P51948+P51946)
CDK2 CCNE1 (human) = CDK2 CCNE1 (human) (UniProt P24941+P24864)
MAP3K7 TAB1 (human) = MAP3K7 TAB1 (human) (UniProt O43318+Q15750)
MAP3K7 TAB1 (human), sequence (O43318 whole entry, looked up): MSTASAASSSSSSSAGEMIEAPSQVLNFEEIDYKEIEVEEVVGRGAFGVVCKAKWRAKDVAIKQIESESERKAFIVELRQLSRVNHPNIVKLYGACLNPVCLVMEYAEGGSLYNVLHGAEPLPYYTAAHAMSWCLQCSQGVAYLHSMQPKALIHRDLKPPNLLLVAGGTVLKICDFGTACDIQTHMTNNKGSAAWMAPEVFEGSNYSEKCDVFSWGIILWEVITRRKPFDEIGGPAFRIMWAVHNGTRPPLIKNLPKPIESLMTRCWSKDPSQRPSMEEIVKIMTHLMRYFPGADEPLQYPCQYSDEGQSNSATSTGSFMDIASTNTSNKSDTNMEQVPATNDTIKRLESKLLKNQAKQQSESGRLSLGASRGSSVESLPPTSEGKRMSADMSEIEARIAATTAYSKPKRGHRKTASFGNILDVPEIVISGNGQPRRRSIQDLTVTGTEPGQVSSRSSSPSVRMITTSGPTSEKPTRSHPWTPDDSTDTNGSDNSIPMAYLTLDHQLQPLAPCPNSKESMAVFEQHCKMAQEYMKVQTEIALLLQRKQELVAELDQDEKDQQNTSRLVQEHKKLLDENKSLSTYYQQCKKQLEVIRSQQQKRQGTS
MAP3K7 TAB1 (human), sequence (Q15750 whole entry, looked up): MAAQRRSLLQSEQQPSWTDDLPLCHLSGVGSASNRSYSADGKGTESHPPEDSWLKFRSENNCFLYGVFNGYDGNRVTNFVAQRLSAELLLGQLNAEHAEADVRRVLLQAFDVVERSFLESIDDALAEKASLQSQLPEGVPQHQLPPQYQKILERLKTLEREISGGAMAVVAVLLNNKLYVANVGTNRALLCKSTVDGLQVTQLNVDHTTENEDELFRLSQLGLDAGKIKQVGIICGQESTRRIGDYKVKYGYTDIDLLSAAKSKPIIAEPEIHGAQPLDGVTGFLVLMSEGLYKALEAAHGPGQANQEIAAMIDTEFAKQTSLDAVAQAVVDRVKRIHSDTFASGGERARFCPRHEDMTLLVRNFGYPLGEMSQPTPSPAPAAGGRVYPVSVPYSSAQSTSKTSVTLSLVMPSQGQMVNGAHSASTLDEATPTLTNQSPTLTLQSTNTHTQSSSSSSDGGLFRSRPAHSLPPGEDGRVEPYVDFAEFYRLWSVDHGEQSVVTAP

CDK3 CCNE1 (human) = CDK3 CCNE1 (human) (UniProt Q00526+P24864)
CDK4 CCND1 (human) = CDK4 CCND1 (human) (UniProt P24385+P11802)
CDK9 CCNT1 (human) = CDK9 CCNT1 (human) (UniProt P50750+O60563)
CDK9 CCNT1 (human), sequence (O60563 whole entry, looked up): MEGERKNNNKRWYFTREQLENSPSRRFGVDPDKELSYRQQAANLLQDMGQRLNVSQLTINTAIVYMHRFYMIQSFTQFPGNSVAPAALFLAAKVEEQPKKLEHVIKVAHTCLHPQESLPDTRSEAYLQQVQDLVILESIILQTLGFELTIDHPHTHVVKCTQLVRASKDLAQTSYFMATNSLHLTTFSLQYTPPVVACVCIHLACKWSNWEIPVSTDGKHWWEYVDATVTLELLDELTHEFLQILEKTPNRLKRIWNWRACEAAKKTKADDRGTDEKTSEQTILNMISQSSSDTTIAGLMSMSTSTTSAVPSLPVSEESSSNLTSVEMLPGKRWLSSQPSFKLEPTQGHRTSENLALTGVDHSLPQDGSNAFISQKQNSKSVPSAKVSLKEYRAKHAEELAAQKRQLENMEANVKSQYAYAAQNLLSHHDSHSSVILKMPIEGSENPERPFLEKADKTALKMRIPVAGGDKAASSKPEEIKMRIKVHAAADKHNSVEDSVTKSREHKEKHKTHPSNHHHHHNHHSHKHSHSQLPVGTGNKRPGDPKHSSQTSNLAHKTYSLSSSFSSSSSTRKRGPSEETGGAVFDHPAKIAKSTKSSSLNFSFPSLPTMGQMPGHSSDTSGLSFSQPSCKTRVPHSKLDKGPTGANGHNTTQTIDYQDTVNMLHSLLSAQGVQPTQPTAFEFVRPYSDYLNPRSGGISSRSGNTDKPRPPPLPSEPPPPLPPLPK
CDK9 CCNT1 (human), sequence (P50750 whole entry, looked up): as the sequence (P50750 whole entry, looked up) above

EPHB2 (human) = EPHB2 (human) (UniProt P29323)
FRK (human) = FRK (human) (UniProt P42685)

STK33 (human), sequence (Q9BYT3 whole entry, looked up): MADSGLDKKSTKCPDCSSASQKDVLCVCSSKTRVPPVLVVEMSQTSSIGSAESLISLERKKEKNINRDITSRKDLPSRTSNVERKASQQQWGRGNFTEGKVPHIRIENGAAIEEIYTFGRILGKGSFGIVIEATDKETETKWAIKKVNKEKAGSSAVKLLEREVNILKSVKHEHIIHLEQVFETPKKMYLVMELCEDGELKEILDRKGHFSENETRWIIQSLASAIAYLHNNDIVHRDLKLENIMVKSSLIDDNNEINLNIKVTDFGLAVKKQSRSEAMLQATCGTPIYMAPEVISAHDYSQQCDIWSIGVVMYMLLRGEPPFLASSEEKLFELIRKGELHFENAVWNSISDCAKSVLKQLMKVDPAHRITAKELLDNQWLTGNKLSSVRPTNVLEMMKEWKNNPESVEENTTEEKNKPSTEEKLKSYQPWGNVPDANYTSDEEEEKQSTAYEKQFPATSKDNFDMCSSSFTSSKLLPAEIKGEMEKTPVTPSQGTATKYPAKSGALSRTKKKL
PRKCH (human), sequence (P24723 whole entry, looked up): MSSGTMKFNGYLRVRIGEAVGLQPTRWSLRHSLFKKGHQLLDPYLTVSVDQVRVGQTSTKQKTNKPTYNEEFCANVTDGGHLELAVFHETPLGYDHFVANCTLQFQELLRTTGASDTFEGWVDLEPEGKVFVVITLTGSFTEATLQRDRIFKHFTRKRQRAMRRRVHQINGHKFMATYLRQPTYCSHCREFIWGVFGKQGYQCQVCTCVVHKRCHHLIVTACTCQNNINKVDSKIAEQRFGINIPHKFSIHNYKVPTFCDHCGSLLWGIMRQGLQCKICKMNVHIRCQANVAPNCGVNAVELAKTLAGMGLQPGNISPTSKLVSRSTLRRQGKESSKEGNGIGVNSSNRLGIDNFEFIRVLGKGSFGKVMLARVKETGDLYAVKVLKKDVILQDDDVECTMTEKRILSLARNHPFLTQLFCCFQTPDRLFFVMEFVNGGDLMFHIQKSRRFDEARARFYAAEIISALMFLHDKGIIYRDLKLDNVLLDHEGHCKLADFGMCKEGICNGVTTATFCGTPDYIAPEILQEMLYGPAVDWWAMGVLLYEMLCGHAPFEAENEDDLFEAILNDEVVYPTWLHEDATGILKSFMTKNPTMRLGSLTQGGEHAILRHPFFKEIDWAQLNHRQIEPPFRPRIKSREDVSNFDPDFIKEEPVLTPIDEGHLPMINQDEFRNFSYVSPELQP

Compound: Cc1cc(C)c(/C=C2\C(=O)Nc3ccccc32)[nH]1
residual activity (PRKCH (human)): 94.7%
residual activity (TLK2 (human)): 98.5%

Compound: CO[C@H]1[C@@H](OC)C[C@H](C)[C@@H](OC)C2=CC(=O)C=C(NC(=O)/C(C)=C\C=C/[C@H](OC)[C@@H](OC(N)=O)/C(C)=C\[C@@H]1C)C2=O
residual activity (STK33 (human)): 97%
residual activity (PRKCH (human)): 95.3%
residual activity (DYRK1B (human)): 104%
residual activity (LTK (human)): 98.5%

Compound: O=[N+]([O-])/C=C/c1ccc2c(c1)OCO2
residual activity (STK33 (human)): 94.2%
residual activity (PRKCH (human)): 103%
residual activity (DYRK1B (human)): 112%
residual activity (LTK (human)): 96.4%

Compound: COC[C@H]1OC(=O)c2coc3c2[C@@]1(C)C1=C(C3=O)[C@@H]2CCC(=O)[C@@]2(C)C[C@H]1OC(C)=O
residual activity (CDK1 CCNB1 (human)): 101%
residual activity (CDK1 CCNA2 (human)): 97%
residual activity (CDK2 CCNA2 (human)): 93.5%
residual activity (CDK5 CDK5R1 p35 (human)): 88.7%
residual activity (STK33 (human)): 88.2%
residual activity (CDK4 CCND3 (human)): 98.8%
residual activity (CDK5 CDK5R1 p25 (human)): 87.6%
residual activity (CDK6 CCND1 (human)): 90.1%
residual activity (CDK9 CCNK (human)): 107%
residual activity (PRKCH (human)): 100%
residual activity (CDK6 CCND3 (human)): 85.8%
residual activity (CDK7 CCNH MNAT1 (human)): 93.3%
residual activity (CDK2 CCNE1 (human)): 105%
residual activity (MAP3K7 TAB1 (human)): 97.2%
residual activity (DYRK1B (human)): 100%
residual activity (CDK3 CCNE1 (human)): 95.2%
residual activity (CDK4 CCND1 (human)): 94.8%
residual activity (CDK9 CCNT1 (human)): 93.7%

The remaining lines, values ahead:

residual activity (PRKCH (human)): 77%
Compound: CC(C)n1cnc2c(NCc3ccccc3)nc(NCCCO)nc21

residual activity (CDK1 CCNB1 (human)): 93.9%
residual activity (CDK1 CCNA2 (human)): 96.3%
residual activity (CDK2 CCNA2 (human)): 92.4%
residual activity (CDK5 CDK5R1 p35 (human)): 101%
residual activity (CDK4 CCND3 (human)): 99.1%
residual activity (EPHB2 (human)): -0.191%
residual activity (CDK5 CDK5R1 p25 (human)): 102%
residual activity (CDK6 CCND1 (human)): 95.5%
residual activity (CDK9 CCNK (human)): 104%
residual activity (PRKCH (human)): 106%
residual activity (CDK6 CCND3 (human)): 103%
residual activity (CDK7 CCNH MNAT1 (human)): 112%
residual activity (CDK2 CCNE1 (human)): 95.9%
residual activity (MAP3K7 TAB1 (human)): 87.3%
residual activity (CDK3 CCNE1 (human)): 91.7%
residual activity (CDK4 CCND1 (human)): 94.4%
residual activity (FRK (human)): -0.878%
residual activity (CDK9 CCNT1 (human)): 84.1%
Compound: Cc1nc(Nc2ncc(C(=O)Nc3c(C)cccc3Cl)s2)cc(N2CCN(CCO)CC2)n1

residual activity (PRKCH (human)): 94.9%
Compound: O=C(Nc1nc2ccccc2n1CCN1CCOCC1)c1cccc([N+](=O)[O-])c1
